# Source: US20200315950A1, “COMPOSITION FOR MODULATING THE GENES RESPONSIBLE FOR GENERAL SKIN FUNCTIONS, METHOD FOR MODULATING THE EXPRESSION OF GENES RESPONSIBLE FOR GENERAL SKIN FUNCTIONS, AND USE OF A PLANT EXTRACT” (Natura Cosmeticos S.A., priority 2016, published 2020)
# Several values for one entry are separate records, joined by “and”; a condition that tells them apart may be missing. Identical values can stand only once.
# System: 180 genes in skin explants
# Test: Large scale gene expression profile assay (PCR array) in skin explants
# Type: cell-based, human
# Details: eyelid skin explants, 2 mg/cm^2 topical, 24 hours, threshold 30% increase or reduction
# Experimental: A large scale gene expression profile assay (by PCR array) was performed of 180 genes in skin explants obtained subsequent to blepharoplasty and subjected to individual treatments with the present invention.
# Initially, skin explants were obtained from the eyelids of females between 45 and 55 years of age, three (3) different donors of each age. The explants were split into halves and immediately inserted, in triplicate from each donor, into a culture medium and kept for 24 hours (half 1) and 72 hours (half 2) in a wet environment, at 37° C., 5% CO2. […]
# Half (1) was collected and subjected to total RNA extraction. The quality of the extracted RNA was qualitatively (Bioanalyzer microcapillary electrophoresis) and quantitatively (Nanodrop spectrophotometer) assessed. […] The ΔCt values for the GAPDH (glyceraldehyde-3-phosphate dehydrogenase) reference gene and target gene were calculated by subtracting from each other the values for the experimental groups. […] Lastly, a relative quantification of the target genes was determined by using the equation: RQ=2−ΔΔCt. […] The statistical significance was assessed by using the t test followed by the Benjamini-Hochberg method (FDR—false discovery rate), which p-value<0.05 was considered significant. […]
row,Molecule,number of genes modulated as compared to the untreated control
1,"C/C=C/C=C\CC/C=C/C(=O)NCC(C)C [spilanthol sample, spilanthol]",163 genes
2,hyaluronic acid [Hyaluronic Acid sample],162 genes and 146 genes
